According to patent publication US9975861B2, “Dual inhibitor compounds for use in the treatment of neurodegenerative disorders and alzheimer's disease” (FONDAZIONE ISTITUTO ITALIANO DI TECNOLOGIA, priority 2014, dated 2018):

Key:
[1] = system: primary astrocytes and microglial cells; assay: Nitrites measurement (Griess reaction) in LPS-stimulated primary glial cells; assay type: cell-based, rat; conditions: for reduction of LPS-induced nitrite production: compounds 10 μM for 1 hour, then LPS 10 μg/mL for 24 hours, astrocytes and microglia, potency compared with 6-amino triazinones A-C (FIGS. 2A, 2B); for nitrite production in astrocyte cells: compounds 10 μM, LPS 10 μg/mL 24 hours, astrocyte cells (FIG. 2A)
Protocol: Astrocytes were prepared from neonatal (P2) rat cerebral cortex, as previously described by Luna-Medina et al. [Luna-Medina, R.; Cortes-Canteli, M.; Alonso, M.; Santos, A.; Martinez, A.; Perez-Castillo, A. Regulation of inflammatory response in neural cells in vitro by thiadiazolidinones derivatives through peroxisome proliferator-activated receptor gamma activation. J. Biol. Chem. 2005, 280, 21453-21462].
Briefly, after removal of the meninges, the cerebral cortex was dissected, dissociated, and incubated with 0.25% trypsin/EDTA at 37° C. for 1 hour. After centrifugation, the pellet was washed 3 times with Hank's balanced salt solution (HBSS) (Gibco) and the cells were placed on noncoated flasks and maintained in HAMS/Dulbecco's modified eagle's medium (DMEM) (1:1) medium containing 10% of fetal bovine serum (FBS). After 15 days, the flasks were agitated on an orbital shaker for 4 hours at 240 rpm at 37° C., the supernatant was collected, centrifuged, and the cellular pellet containing the microglial cells resuspended in complete medium (HAMS/DMEM (1:1) containing 10% FBS) and seeded on uncoated 96-well plates. Cells were allowed to adhere for 2 hours, and the medium was removed to eliminate nonadherent oligodendrocytes. New fresh medium containing 10 ng/mL of granulocyte-macrophage colony-stimulating factor (GM-CSF) was added. The remaining astroglial cells adhered on the flasks were then trypsinized, collected, centrifugated, and plated onto 96-well plates with complete medium. The purity of cultures obtained by this procedure was >98% as determined by immunofluorescence with the OX42 (microglial marker) and the glial fibrillary acidic protein (GFAP, astroglial marker) antibodies.
The potential anti-inflammatory activity of the selected compounds was tested by evaluating the production of nitrites from primary cultured glial cells. Primary cultures of astrocytes and microglia were incubated with the selected compounds (10 μM) for 1 hour, and then cells were cultured for another 24 hours with a potent inflammatory agent, such as lipopolysaccharide (LPS) (10 μg/mL). LPS is able to induce nitrite production and accumulation in the culture medium, which was assayed by the standard Griess reaction. Supernatants were collected from the media and mixed with an equal volume of Griess reagent (Sigma). Samples were then incubated at rt for 15 minutes and absorbance read using a plate reader at 492/540 nm.

[2] = target: β-secretase (BACE-1) (Homo sapiens (Human), UniProt P56817); assay: Inhibition of BACE-1 (fluorogenic APP-mimicking peptide substrate); conditions: BACE-1 IC50 (μM), substrate 3 μM, 1 hour pre-incubation at rt, 15 minutes at 37° C.
Protocol: β-secretase (BACE-1, Sigma-Aldrich) inhibition studies were performed by employing a peptide mimicking APP sequence as substrate (Methoxycoumarin-[sequence]dinitrophenyl, M-2420, Bachem, Germany). The following procedure was employed: 5 μL of test compounds (or DMSO, if preparing a control well) were pre-incubated with 175 μL of enzyme (in 20 mM sodium acetate containing 3-[(3-Cholamidopropyl)dimethylammonio]-1-propanesulfonate (CHAPS) 0.1% w/v) for 1 hour at rt. The substrate (3 μM, final concentration) was then added and left to react for 15 minutes at 37° C. The fluorescence signal was read at λem=405 nm (λexc=320 nm) using a Fluoroskan Ascent. […] The fluorescence intensities with and without inhibitor were compared and the percent inhibition due to the presence of test compounds was calculated. The background signal was measured in control wells containing all the reagents, except BACE-1 and subtracted. The % inhibition due to the presence of increasing test compound concentration was calculated by the following expression: 100−(IFi/IFo×100) where IFi and IFo are the fluorescence intensities obtained for BACE-1 in the presence and in the absence of inhibitor, respectively. […] The linear regression parameters were determined and the IC50 extrapolated (GraphPad Prism 4.0, GraphPad Software Inc.).

[3] = target: Human recombinant GSK-3β (Homo sapiens (Human), UniProt P49841); assay: Inhibition of GSK-3β (Kinase-Glo luminescent kinase assay); assay type: biochemical; conditions: 1 μM ATP, 25 μM substrate, 30 minutes at 30° C.
Protocol: Human recombinant GSK-3β was purchased from Millipore (Millipore Iberica S.A.U.) The prephosphorylated polypeptide substrate was purchased from Millipore (Millipore Iberica SAU). Kinase-Glo Luminescent Kinase Assay was obtained from Promega (Promega Biotech Iberica, SL). ATP and all other reagents were from Sigma-Aldrich. Assay buffer contained 50 mM 4-(2-hydroxyethyl)-1-piperazineethanesulfonic acid (HEPES) (pH 7.5), 1 mM ethylenediaminetetraacetic acid (EDTA), 1 mM ethylene glycol tetraacetic acid (EGTA), and 15 mM magnesium acetate. The method developed by Baki was followed [Baki et al. Assay and Drug Development Technologies 2007, 5(1),75-83] to analyze the inhibition of GSK-3β. Kinase-Glo assays were performed in assay buffer using white 96-well plates. In a typical assay, 10 μL (10 μM) of test compound (dissolved in DMSO at 1 mM concentration and diluted in advance in assay buffer to the desired concentration) and 10 μL (20 ng) of enzyme were added to each well followed by 20 μL of assay buffer containing 25 μM substrate and 1 μM adenosine triphosphate (ATP). […] After a 30 minutes incubation at 30° C., the enzymatic reaction was stopped with 40 μL of Kinase-Glo reagent. Glow-type luminescence was recorded after 10 minutes using a Fluoroskan Ascent multimode reader.
The activity is proportional to the difference of the total and consumed ATP.

Human recombinant GSK-3β, sequence (P49841 whole entry): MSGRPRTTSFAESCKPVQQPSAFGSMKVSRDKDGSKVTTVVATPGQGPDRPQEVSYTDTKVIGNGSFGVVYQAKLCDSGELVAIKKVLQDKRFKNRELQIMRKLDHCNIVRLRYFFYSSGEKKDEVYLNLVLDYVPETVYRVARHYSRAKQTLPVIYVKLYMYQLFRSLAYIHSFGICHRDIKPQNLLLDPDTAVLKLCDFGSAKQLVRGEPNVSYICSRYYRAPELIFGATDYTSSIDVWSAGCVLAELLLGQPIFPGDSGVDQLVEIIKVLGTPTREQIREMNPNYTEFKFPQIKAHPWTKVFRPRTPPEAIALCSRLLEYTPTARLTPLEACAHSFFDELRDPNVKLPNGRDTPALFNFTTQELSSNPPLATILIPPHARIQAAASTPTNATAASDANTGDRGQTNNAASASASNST
β-secretase (BACE-1), sequence (P56817 46-501): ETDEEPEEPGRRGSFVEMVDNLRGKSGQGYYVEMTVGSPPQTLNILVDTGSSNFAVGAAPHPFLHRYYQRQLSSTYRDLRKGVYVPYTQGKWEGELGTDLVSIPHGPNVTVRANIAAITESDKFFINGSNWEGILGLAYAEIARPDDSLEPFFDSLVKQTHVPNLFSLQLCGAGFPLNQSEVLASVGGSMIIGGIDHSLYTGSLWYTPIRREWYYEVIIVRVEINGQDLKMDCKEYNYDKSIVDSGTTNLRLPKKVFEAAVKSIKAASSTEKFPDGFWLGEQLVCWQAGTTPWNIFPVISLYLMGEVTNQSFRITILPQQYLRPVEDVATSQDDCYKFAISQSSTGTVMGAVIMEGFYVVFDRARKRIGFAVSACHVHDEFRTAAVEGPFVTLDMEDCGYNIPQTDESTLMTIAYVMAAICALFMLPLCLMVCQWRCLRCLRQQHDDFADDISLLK

Row | SMILES | reduction of LPS-induced nitrite production [1] | nitrite production in astrocyte cells [1] | IC50 [2] [µM] | IC50 [3] [µM]
1 | CCNC1=NC(c2ccc(F)cc2)NC(=O)N1 (racemic) [Example 3, 6-(ethylamino)-4-(4-fluorophenyl)-3,4-dihydro-1,3,5-triazin-2(1H)-one] | higher potency | restore nitrite production to basal level |  | 
2 | CCCNC1=NC(c2ccc(F)cc2)NC(=O)N1 (stereo not drawn) [Example 6, 4-(4-fluorophenyl)-6-(propylamino)-3,4-dihydro-1,3,5-triazin-2(1H)-one] | higher potency | restore nitrite production to basal level | 36.8 ± 9.85 | 4.34 ± 0.63
